We go through 4 molecules from ChEMBL document CHEMBL4359850, “Synthesis, in vivo and in silico anticonvulsant activity studies of new derivatives of 2-(2,4-dioxo-1,4-dihydroquinazolin-3(2H)-yl)acetamide” (Eur J Med Chem, 2019).

The test system of series [1] is Mus musculus. The series is described as follows: Anticonvulsive activity in pentylenetetrazole-induced seizure albino mouse model assessed as latecy time at 100 mg/kg, ig administered 30 mins prior to pentylenetetrazole challenge and mesured for 60 mins (reference value: 5.79 +/- 0.58 min). Format: functional.
The subject of series [2] is Mus musculus. The series is described as follows: Anticonvulsive activity in pentylenetetrazole-induced seizure albino mouse model assessed as number of clonic and tonic convulsion at 100 mg/kg, ig administered 30 mins prior to pentylenetetrazole challenge and mesured per animal for 60 mins (reference value: 3.58 +/- 0.42). Format: functional.
In series [3] the test system is Mus musculus. Nature of the series: Anticonvulsive activity in pentylenetetrazole-induced seizure albino mouse model assessed as proportion of animals with clonic convulsion at 100 mg/kg, ig administered 30 mins prior to pentylenetetrazole challenge and mesured for 60 mins (reference value: 100 %). Format: functional.
Series [4] relates to Mus musculus. The series is described as follows: Anticonvulsive activity in pentylenetetrazole-induced seizure albino mouse model assessed as proportion of animals with tonic convulsion at 100 mg/kg, ig administered 30 mins prior to pentylenetetrazole challenge and mesured for 60 mins (reference value: 100%). Format: functional.
Series [5] has as its system Mus musculus. Nature of the series: Anticonvulsive activity in albino mouse assessed as protection against pentylenetetrazole-induced seizure by measuring severity of convulsion at 100 mg/kg, ig administered 30 mins prior to pentylenetetrazole challenge and mesured for 60 mins (reference value: 5.83 +/- 0.17). The series is classed as functional.
The subject of series [6] is Mus musculus. Nature of the series: Anticonvulsive activity in pentylenetetrazole-induced seizure albino mouse model assessed as duration time of convulsion period at 100 mg/kg, ig administered 30 mins prior to pentylenetetrazole challenge and mesured for 60 mins (reference value: 12 +/- 1.34 min). The series is classed as functional.
Series [7] deals with Mus musculus. Nature of the series: Anticonvulsive activity in pentylenetetrazole-induced seizure albino mouse model assessed as lifetime of animal to death at 100 mg/kg, ig administered 30 mins prior to pentylenetetrazole challenge and mesured for 60 mins (reference value: 17.45 +/- 1.85 min). The series is classed as functional.
The subject of series [8] is Mus musculus. The series is described as follows: Anticonvulsive activity in pentylenetetrazole-induced seizure albino mouse model assessed as lethality at 100 mg/kg, ig administered 30 mins prior to pentylenetetrazole challenge and mesured for 60 mins (reference value: 91.7%). Format: functional.
Series [9] in a line: Toxicity in albino mouse assessed as motor coordination impairment by measuring animal fall-off from rod before 1 min at 100 mg/kg, ig administered 30 mins prior to test by rotarod test (reference value: 17%). Format: organism-based. The following applies: in vivo, po. In general terms: In the rotarod test animals must keep their balance on a rotating rod.
Series [10] in a line: Toxicity in albino mouse assessed as motor coordination impairment by measuring animal fall-off from rod before 2 mins at 100 mg/kg, ig administered 30 mins prior to test by rotarod test (reference value: 33%). The series is classed as organism-based. The following applies: in vivo, po.
Series [11] is described as follows: Toxicity in albino mouse assessed as motor coordination impairment by measuring animal fall-off from rod before 3 mins at 100 mg/kg, ig administered 30 mins prior to test by rotarod test (reference value: 33%). Format: organism-based. Particulars: in vivo, po, 0.05 h.
A short description of series [12]: Toxicity in albino mouse assessed as motor coordination impairment by measuring animal fall-off from rod before 5 mins at 100 mg/kg, ig administered 30 mins prior to test by rotarod test (reference value: 50%). The series is classed as organism-based. The following applies: in vivo, po.
For series [13], the system named is Mus musculus. The series is described as follows: Anticonvulsive activity in pentylenetetrazole-induced seizure albino mouse model assessed as decrease in time of death at 100 mg/kg, ig administered 30 mins prior to pentylenetetrazole challenge and mesured for 60 mins relative to control. The series is classed as functional.
The nature of series [14]: Acute toxicity in albino mouse assessed as decrease in motor activity at 3000 to 5000 mg/kg, ig measured after 30 mins to 1 hr. Format: organism-based. Particulars: in vivo, po.
Series [15] in a line: Acute toxicity in ig dosed albino mouse measured for 14 days. The following applies: in vivo, po. The series is classed as organism-based.
Series [16] in a line: Acute toxicity in albino mouse assessed as death at 1000 to 5000 mg/kg, ig measured for 14 days. The series is classed as organism-based. Particulars: in vivo, po, 336 h.
Series [17] is described as follows: Acute toxicity in albino mouse assessed as lateral position at 1000 to 5000 mg/kg, ig measured for 14 days. Format: organism-based. Particulars: in vivo, po, 336 h.
A short description of series [18]: Acute toxicity in albino mouse assessed as blepharoptosis at 1000 to 5000 mg/kg, ig measured for 14 days. The series is classed as organism-based. Particulars: in vivo, po, 336 h.
Series [19] can be described thus: Acute toxicity in albino mouse assessed as hypersalivation at 1000 to 5000 mg/kg, ig measured for 14 days. The series is classed as organism-based. Particulars: in vivo, po, 336 h.
Series [20] in a line: Acute toxicity in albino mouse assessed as diarrhoea at 1000 to 5000 mg/kg, ig measured for 14 days. Format: organism-based. Particulars: in vivo, po, 336 h.
Series [21] in a line: Acute toxicity in albino mouse assessed as effect on muscle movement at 1000 to 5000 mg/kg, ig measured for 14 days. The series is classed as organism-based. Particulars: in vivo, po, 336 h.
A short description of series [22]: Acute toxicity in albino mouse assessed as effect on skeletal muscle tone at 1000 to 5000 mg/kg, ig measured for 14 days. The series is classed as organism-based. The following applies: in vivo, po, 336 h.
The subject of series [23] is Mus musculus. Nature of the series: Anticonvulsive activity in pentylenetetrazole-induced seizure albino mouse model assessed as lengthened latecy of convulsion at 100 mg/kg, ig administered 30 mins prior to pentylenetetrazole challenge and mesured for 60 mins relative to control. Format: functional.
Series [24] has as its system Mus musculus. Nature of the series: Anticonvulsive activity in pentylenetetrazole-induced seizure albino mouse model assessed as decrease in severity of convulsion at 100 mg/kg, ig administered 30 mins prior to pentylenetetrazole challenge and mesured for 60 mins relative to control. The series is classed as functional.
Series [25] concerns Mus musculus. The series is described as follows: Anticonvulsive activity in pentylenetetrazole-induced seizure albino mouse model assessed as decrease in duration of convulsive period at 100 mg/kg, ig administered 30 mins prior to pentylenetetrazole challenge and mesured for 60 mins relative to control. Format: functional.
The subject of series [26] is Mus musculus. Nature of the series: Anticonvulsive activity in pentylenetetrazole-induced seizure albino mouse model assessed as latency time at 300 mg/kg, ig administered 30 mins prior to pentylenetetrazole challenge and mesured for 60 mins (reference value: 5.79 +/- 0.58 min). Format: functional.
Series [27] relates to Mus musculus. Nature of the series: Anticonvulsive activity in pentylenetetrazole-induced seizure albino mouse model assessed as proportion of animals with clonic convulsion at 300 mg/kg, ig administered 30 mins prior to pentylenetetrazole challenge and mesured for 60 mins (reference value: 100 %). Format: functional.
The test system of series [28] is Mus musculus. The series is described as follows: Anticonvulsive activity in pentylenetetrazole-induced seizure albino mouse model assessed as proportion of animals with tonic convulsion at 300 mg/kg, ig administered 30 mins prior to pentylenetetrazole challenge and mesured for 60 mins (reference value: 100%). Format: functional.
Series [29] deals with Mus musculus. Nature of the series: Anticonvulsive activity in albino mouse assessed as protection against pentylenetetrazole-induced seizure by measuring severity of convulsion at 300 mg/kg, ig administered 30 mins prior to pentylenetetrazole challenge and mesured for 60 mins (reference value: 5.83 +/- 0.17). The series is classed as functional.
For series [30], the system named is Mus musculus. The series is described as follows: Anticonvulsive activity in pentylenetetrazole-induced seizure albino mouse model assessed as duration time of convulsion period at 300 mg/kg, ig administered 30 mins prior to pentylenetetrazole challenge and mesured for 60 mins (reference value: 12 +/- 1.34 min). The series is classed as functional.
The subject of series [31] is Mus musculus. The series is described as follows: Anticonvulsive activity in pentylenetetrazole-induced seizure albino mouse model assessed as lifetime of animal to death at 300 mg/kg, ig administered 30 mins prior to pentylenetetrazole challenge and mesured for 60 mins (reference value: 17.45 +/- 1.85 min). The series is classed as functional.
Series [32] has as its system Mus musculus. Nature of the series: Anticonvulsive activity in pentylenetetrazole-induced seizure albino mouse model assessed as lethality at 300 mg/kg, ig administered 30 mins prior to pentylenetetrazole challenge and mesured for 60 mins (reference value: 91.7%). Format: functional.
Series [33] is described as follows: Toxicity in albino mouse assessed as motor coordination impairment by measuring animal fall-off from rod before 1 min at 300 mg/kg, ig administered 30 mins prior to test by rotarod test (reference value: 17%). Format: organism-based. The following applies: in vivo, po.
A short description of series [34]: Toxicity in albino mouse assessed as motor coordination impairment by measuring animal fall-off from rod before 2 mins at 300 mg/kg, ig administered 30 mins prior to test by rotarod test (reference value: 33%). Format: organism-based. Particulars: in vivo, po.
A short description of series [35]: Toxicity in albino mouse assessed as motor coordination impairment by measuring animal fall-off from rod before 3 mins at 300 mg/kg, ig administered 30 mins prior to test by rotarod test (reference value: 33%). Format: organism-based. The following applies: in vivo, po, 0.05 h.
Series [36] is described as follows: Toxicity in albino mouse assessed as motor coordination impairment by measuring animal fall-off from rod before 5 mins at 300 mg/kg, ig administered 30 mins prior to test by rotarod test (reference value: 50%). Format: organism-based. Particulars: in vivo, po.
Series [37] deals with Mus musculus. Nature of the series: Anticonvulsive activity in pentylenetetrazole-induced seizure albino mouse model assessed as number of clonic and tonic convulsion at 300 mg/kg, ig administered 30 mins prior to pentylenetetrazole challenge and mesured per animal for 60 mins (reference value: 3.58 +/- 0.42). Format: functional.

For `COc1ccccc1CNC(=O)Cn1c(=O)[nH]c2ccccc2c1=O`, the results for the Time in the series with Mus musculus [1], in the series with Mus musculus [6] and in the series on Mus musculus [7] were 15.14 min, 7.25 min and 12.45 min, respectively. The Activity in the series with Mus musculus [2] came out at 2.4; with Mus musculus [3], 80%; in the series on Mus musculus [4], 80%; with Mus musculus [5], 4.4; with Mus musculus [8], 60%; in series [9], 50%. Further, the Activity in series [10] is on record as 67%; in series [11] it was 67%; in [12] it was 83%.
`O=C(Cn1c(=O)[nH]c2ccccc2c1=O)NCc1ccc(Cl)cc1`: the Time is 4.82 min with Mus musculus [1], 4.54 min in the series on Mus musculus [6] and 9.36 min with Mus musculus [7]. In addition, the Activity with Mus musculus [2] came to 2; with Mus musculus [3] it was 100%; in the series on Mus musculus [4], 100%; with Mus musculus [5], 6; in series [9], 50%; in series [10], 67%. The Activity in series [11] came to 67%; in [12], 83%. Further, the “fold change (FC)” value with Mus musculus [13] turned out to be 1.9.
On to `O=C(Cn1c(=O)[nH]c2ccccc2c1=O)NCc1ccc(Cl)cc1Cl`, for which the Activity result in series [14] was “Toxic”; in the series with Mus musculus [2], 1; in the series on Mus musculus [3], 80%; with Mus musculus [4] it was 40%; in the series with Mus musculus [5] it was 2.8; with Mus musculus [8] it was 0%. The Activity was 17% in [9]; 50% in series [10]; 50% in [11]; 67% in series [12]; “Non-Toxic” in series [16]; “Non-Toxic” in series [17]. Also, the Activity result in series [18], in series [19], in [20], in series [21] and in [22] was “Non-Toxic” each time. For the same molecule, the Time with Mus musculus [1] came out at 20.38 min; in the series with Mus musculus [6], 0.45 min. Also, the LD50 (in general, the dose expected to kill half of the subjects tested) at 336 h in series [15] is > 5000 mg/kg. The “fold change (FC)” value is on record as 3.5 with Mus musculus [23], 2.1 in the series with Mus musculus [24] and 26.7 in the series on Mus musculus [25].
On to `CCCC(CCC)C(=O)[O-].[Na+]` [VALPROATE SODIUM], for which the Time in the series on Mus musculus [26] is 26.65 min; in the series with Mus musculus [30] it was 7.64 min; in the series on Mus musculus [31], 20.9 min. The Activity was determined as 66.7% in the series on Mus musculus [27]; 50% in the series on Mus musculus [28]; 2.83 in the series with Mus musculus [29]; 16.7% with Mus musculus [32]; 50% in series [33]; 67% in series [34]. Moreover, the values for the Activity (in series [35]; in [36]; in the series on Mus musculus [37]) were 83%, 100% and 2, respectively.
